One test deals with T1, Src SH2 domain (Homo sapiens, UniProt P12931).
T1 construct: 350 nM of GST-Src SH2 domain fusion protein
Briefly: fluorescence polarization (FP) competition binding assay against fluorescent probe EPQ(pY)EEIPIYL(K-Flc). Particulars: for IC50: concentration that reduces binding of fluorescein-labeled probe EPQ(pY)EEIPIYL(K-Flc) to the Src SH2 domain by 50%, 350 nM GST-Src SH2, 50 nM probe, 25°C, pH 7.3. The procedure:
The relative binding affinity of phosphopeptides to the Src SH2 domain was tested by competition against a fluorescent probe using a fluorescence polarization (FP) binding assay, [17], [18]. FP was measured at 25°C in a disposable glass tube, using a Beacon 2000 luminescence spectrometer equipped with an FP apparatus. The excitation and emission wavelengths were set at 485 and 535 nm, respectively. The fluorescent probe was the fluorescein (Flc)-labeled phosphopeptide EPQ(pY)EEIPIYL(K-Flc). For the competition assay, final concentrations of 350 nM of GST-Src SH2 domain fusion protein, 50 nM fluorescent probe, HEPES buffer (20 mM, pH 7.3, 100 mM NaCl, 2 mM DTT, 0.1% BSA) and various concentrations (0–100 µM) of each competitor peptide were used. A blank control (with the Src SH2 domain but without a peptide) and a background control (without both the Src SH2 domain and the peptide) were used. The inhibition percentage IP of fluorescent probe binding to the Src SH2 domain by the sample was calculated by the following equation: [drawing 1] where FP0 is the fluorescent polarization value of the blank control, FP is the fluorescent polarization value of the sample (peptide), and FPb is the fluorescent polarization value of the background control. The inhibition percentages of the various concentrations of the assayed peptides were plotted, and the IC50 value (the concentration that inhibits the binding of the fluorescent probe to the Src SH2 domain by 50%) was calculated.
In general terms: Fluorescence polarisation rises when a labelled molecule tumbles more slowly, as on binding a larger partner.

A further test addresses Src SH2. As to conditions: cited from earlier work.

Where two headings read alike, the source gives them in different places. Where a SMILES comes first, the peptide text is derived from it. Where no end group is shown, it is not given here. [ ]: non-standard residue; d: D form. pY = N[C@@H](Cc1ccc(OP(=O)(O)O)cc1)C(=O)O

T1 sequence (P12931 151-248 limits assumed): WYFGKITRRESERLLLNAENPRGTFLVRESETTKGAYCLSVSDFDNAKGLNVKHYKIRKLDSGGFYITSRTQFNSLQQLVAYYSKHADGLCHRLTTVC

What is called IC50 is the concentration needed to halve the response being measured. Low readings indicate greater potency, high ones weaker potency. As to `N[C@@H](Cc1ccc(OP(=O)(O)O)cc1)C(=O)N[C@@H](CCC(=O)O)C(=O)N[C@@H](CCC(=O)O)C(=O)NCC(=O)O` [pYEEG] (H-[pY]EEG-OH), the IC50 on Src SH2 domain was determined as 5700 ± 2100 nM. At Src SH2 domain, `CC[C@H](C)[C@H](NC(=O)[C@H](CC(N)=O)NC(=O)[C@H](CCC(=O)O)NC(=O)[C@@H](N)Cc1ccc(OP(=O)(O)O)cc1)C(=O)O` [pYENI, pTyr-Glu-Asn-Ile] (H-[pY]ENI-OH) yielded a half-maximal inhibitory concentration (IC50) of 1000 ± 100 nM. On Src SH2 domain, `CC(C)[C@H](NC(=O)[C@H](CC(N)=O)NC(=O)[C@H](CCC(=O)O)NC(=O)[C@@H](N)Cc1ccc(OP(=O)(O)O)cc1)C(=O)O` [pYENV] (H-[pY]ENV-OH) yielded an IC50 of 2100 ± 700 nM. For `CC(C)[C@H](NC(=O)[C@H](CC(N)=O)NC(=O)[C@@H](NC(=O)[C@@H](N)Cc1ccc(OP(=O)(O)O)cc1)C(C)C)C(=O)O` [pYVNV, pTyr-Val-Asn-Val-Ala], on Src SH2 domain (estimated binding free energy from FP IC50), the “est. ΔG” value is -6.96 kcal/mol. With pTyr-Glu-Glu-Ile-Pro ([pY]EEIP), the Kd on Src SH2 (complex of crystal structure 1SPS, read-out: affinity of the high-affinity complex with Src SH2) was 80 to 200 nM. As for “pTyr-Val-Pro-Met-Leu ([pY]VPML) [phosphopeptide of the less specific Src SH2 crystal structure 1SHA]”, the Kd at Src SH2 (complex of crystal structure 1SHA, read-out: Kd) was 5500 nM.

(Values after publication PMC2888578, “Conformational Determinants of Phosphotyrosine Peptides Complexed with the Src SH2 Domain” (PLoS ONE, 2010).)
